Drawing on ChEMBL document CHEMBL1127066, “Discovery and structure-activity relationship of a series of 1-carba-1-dethiacephems exhibiting activity against methicillin-resistant Staphylococcus aureus” (J Med Chem, 1993), this text covers MIC for seven compounds.

A value given as a limit tells only on which side of the number the result lay.

Assay type in all cases: functional
In one test the test system is Escherichia coli. In words: In vitro evaluation of antimicrobial activity against Escherichia coli EC14 strain.
For a further test, the system named is Klebsiella. In words: In vitro antimicrobial activity against Klebsiella X26 strain.
The test system of test [1] is Staphylococcus aureus. In words: In vitro antimicrobial activity against Staphylococcus aureus X400 strain.
The test system of test [2] is Staphylococcus epidermidis. In words: In vitro antimicrobial activity against Staphylococcus epidermidis 270 strain.
In test [3] the test system is Pseudomonas aeruginosa. In words: Antimicrobial activity against Pseudomonas PS18 strain.
In test [4] the test system is Staphylococcus epidermidis. In words: In vitro antimicrobial activity against Staphylococcus epidermidis 222 strain.
Another test has as its system Haemophilus influenzae. In words: In vitro antimicrobial activity against Haemophilus influenzae C.L. strain.
Test [5] relates to Staphylococcus aureus. In words: In vitro antimicrobial activity against Staphylococcus aureus S13E strain.
In the next test the test system is Streptococcus pneumoniae. In words: In vitro antimicrobial activity against Streptococcus pneumoniae PARK strain.
The test system of test [6] is Staphylococcus aureus. In words: In vitro antimicrobial activity against Staphylococcus aureus X1.1 strain.
The test system of the next test is Enterobacter cloacae. In words: In vitro evaluation of antimicrobial activity against Enterobacter cloacae EB5 strain.
In test [7] the test system is Pseudomonas aeruginosa. In words: In vitro antimicrobial activity against Pseudomonas X239 strain.

`C[n+]1ccc2sc(SC3=C(C(=O)[O-])N4C(=O)[C@@H]([N-]C(=O)/C(=N/OCCF)c5csc(N)n5)[C@H]4CC3)nc2c1.[Na+]`: the MIC with Escherichia coli turned out to be 0.25 µg/mL; against Klebsiella, 0.03 µg/mL; against Staphylococcus aureus [1], 128 µg/mL; in [2], 8 µg/mL; against Pseudomonas aeruginosa [3], 32 µg/mL; in test [4], 2 µg/mL. In addition, the MIC with Haemophilus influenzae was determined as 0.06 µg/mL; against Staphylococcus aureus [5], 16 µg/mL; against Streptococcus pneumoniae it was 0.15 µg/mL; with Staphylococcus aureus [6] it was 2 µg/mL; in the test with Enterobacter cloacae, 4 µg/mL; against Pseudomonas aeruginosa [7] it was 32 µg/mL.
For `Nc1nc(/C(=N\OCCF)C(=O)N[C@@H]2C(=O)N3C(C(=O)[O-])=C(Sc4cccc[n+]4[O-])CC[C@H]23)cs1.[Na+]`, the MIC with Escherichia coli was determined as 0.125 µg/mL; against Klebsiella, 0.06 µg/mL; in the test on Staphylococcus aureus [1] it was 128 µg/mL; in test [2], 8 µg/mL; against Pseudomonas aeruginosa [3], 128 µg/mL; in [4], 2 µg/mL. Also, the MIC is 0.015 µg/mL in the test with Haemophilus influenzae; 64 µg/mL against Staphylococcus aureus [5]; 0.15 µg/mL against Streptococcus pneumoniae; 2 µg/mL against Staphylococcus aureus [6]; 2 µg/mL against Enterobacter cloacae; over 128 µg/mL in the test on Pseudomonas aeruginosa [7].
For `Nc1nc(/C(=N\OCCF)C(=O)N[C@@H]2C(=O)N3C(C(=O)[O-])=C(Sc4ccncc4)CC[C@H]23)cs1.[Na+]`, the MIC against Escherichia coli was 0.06 µg/mL; with Klebsiella, 0.015 µg/mL; with Staphylococcus aureus [1] it was 64 µg/mL; in [2] it was 2 µg/mL; in the test on Pseudomonas aeruginosa [3], 64 µg/mL; in test [4], 1 µg/mL. Besides, the MIC was 0.015 µg/mL against Haemophilus influenzae; 32 µg/mL in the test on Staphylococcus aureus [5]; under 0.008 µg/mL with Streptococcus pneumoniae; 0.5 µg/mL in the test with Staphylococcus aureus [6]; 0.5 µg/mL in the test on Enterobacter cloacae; 16 µg/mL in the test on Pseudomonas aeruginosa [7].
In the case of `Nc1nc(/C(=N\OCCF)C(=O)N[C@@H]2C(=O)N3C(C(=O)[O-])=C(Sc4nc5c(=O)[nH]c(=O)[nH]c5s4)CC[C@H]23)cs1.[Na+]`, the MIC came out at 0.06 µg/mL with Escherichia coli; 0.06 µg/mL in the test on Klebsiella; 128 µg/mL with Staphylococcus aureus [1]; 8 µg/mL in test [2]; 64 µg/mL against Pseudomonas aeruginosa [3]; 2 µg/mL in test [4]. Further, the MIC against Haemophilus influenzae is under 0.008 µg/mL; with Staphylococcus aureus [5], 16 µg/mL; against Streptococcus pneumoniae, under 0.008 µg/mL; with Staphylococcus aureus [6], 2 µg/mL; in the test with Enterobacter cloacae it was 1 µg/mL; in the test on Pseudomonas aeruginosa [7], over 128 µg/mL.
As to `Nc1nc(/C(=N\OCCF)C(=O)N[C@@H]2C(=O)N3C(C(=O)[O-])=C(Sc4nc5ccccc5o4)CC[C@H]23)cs1.[Na+]`, the MIC with Escherichia coli stood at 0.25 µg/mL; in the test on Klebsiella, 0.015 µg/mL; in the test with Staphylococcus aureus [1], 64 µg/mL; in test [2], 2 µg/mL; against Pseudomonas aeruginosa [3], 32 µg/mL; in test [4], 1 µg/mL. The MIC with Haemophilus influenzae is 0.03 µg/mL; against Staphylococcus aureus [5] it was 2 µg/mL; against Streptococcus pneumoniae, under 0.008 µg/mL; in the test with Staphylococcus aureus [6], 0.125 µg/mL; with Enterobacter cloacae it was 1 µg/mL; in the test with Pseudomonas aeruginosa [7], 32 µg/mL.
Turning to `Nc1nc(/C(=N\OCCF)C(=O)N[C@@H]2C(=O)N3C(C(=O)[O-])=C(Sc4nc5cccnc5s4)CC[C@H]23)cs1.[Na+]`, the MIC in the test with Escherichia coli came to 0.25 µg/mL; against Klebsiella, 0.03 µg/mL; in the test on Staphylococcus aureus [1], 16 µg/mL; in [2], 4 µg/mL; against Pseudomonas aeruginosa [3] it was 64 µg/mL; in [4] it was 1 µg/mL. The MIC in the test on Haemophilus influenzae was 0.03 µg/mL; in the test on Staphylococcus aureus [5] it was 8 µg/mL; against Streptococcus pneumoniae, under 0.008 µg/mL; in the test with Staphylococcus aureus [6] it was 0.25 µg/mL; against Enterobacter cloacae, 2 µg/mL; in the test on Pseudomonas aeruginosa [7], over 128 µg/mL.
In the case of `Nc1nc(/C(=N\OCCF)C(=O)N[C@@H]2C(=O)N3C(C(=O)[O-])=C(Sc4nc5ccccc5[nH]4)CC[C@H]23)cs1.[Na+]`, the MIC in the test with Escherichia coli was 0.125 µg/mL; against Klebsiella, 0.015 µg/mL; against Staphylococcus aureus [1] it was 128 µg/mL; in [2] it was 8 µg/mL; against Pseudomonas aeruginosa [3], 32 µg/mL; in test [4], 2 µg/mL. Further, the MIC with Haemophilus influenzae is 0.015 µg/mL; against Staphylococcus aureus [5], 16 µg/mL; against Streptococcus pneumoniae it was under 0.008 µg/mL; against Staphylococcus aureus [6], 2 µg/mL; in the test on Enterobacter cloacae, 1 µg/mL; against Pseudomonas aeruginosa [7] it was 32 µg/mL.
